This note sets out measurements from patent publication US7335770B2, “Triazine compounds and their analogs, compositions, and methods” (Reddy U5 Therapeutics, Inc., priority 2004, dated 2008).

In general, inhibition refers to how much of the control response was suppressed. One may read the melting point as the temperature, or range, at which the solid turns liquid.

The test system of one data set is MCP1. Briefly: inhibition of TNF-induced MCP1. The data set is classed as cell-based. The following applies: @ 10 uM concentration; read-out: TNF-induced MCP1, In-vitro % of inhibition. The procedure:
The activity of the compounds of the present invention in inhibiting glycated protein- and AGE-induced inflammation can be determined using the assays described herein and in U.S. patent application Ser. No. 10/026,335, which is herein incorporated in its entirety. Such assays comprise measurement of the specific activity of biological components involved in a known cellular response. The assays provide a measurable response in which the activity of the compounds is determined. One assay comprises measurement of the effects of compounds on an inflammatory response by cells to the presence of a stimulating agent. Yet another assay comprises endothelial cells that are stimulated by the addition of a glycated protein, the stimulating agent. The endothelial cells respond by producing specific cytokines. The amount of cytokines produced are determined by measurement protocols known to those skilled in the art. The compounds of the present invention are then added to the assay and the production of cytokines is measured. From the comparison of the assay without the compound with the assay with the compound, the biological effect of the compound can be determined. The compound may have an inhibitory effect, a stimulatory effect, or no effect at all.
The amount and type of cytokine produced can be determined using immunological methods, such as ELISA assays. The methods of the present invention are not limited by the type of assay used to measure the amount of cytokine produced, and any methods known to those skilled in the art and later developed can be used to measure the amount of cytokines produced in response to the stimulating agent and to the compound having unknown activity.
Assays for determining the activity of compounds capable of modulating inflammation include those taught in U.S. patent application Ser. No. 10/026,335 and 09/969,013, which are both expressly incorporated by reference. In general, once the baseline response to the stimulating agent for the production of cytokines by the endothelial cells is established, thus comprising the control levels for the screening assay, the methods comprise addition of compounds of the present invention. The effect of the compound on the baseline response is determined by comparing the amount of cytokine produced in the presence of the stimulating agent and the amount of cytokine produced in the presence of the stimulating agent and the compound of the present invention. In a preferred method, compounds that have inhibitory effects on the inflammation of the cells in the presence of glycated albumin are then used as therapeutic agents. One or more compounds may be added to the screening assay. Combinations or mixtures of compounds can be added. Different amounts and formulations of the compounds are added to determine the effects on the screening assay. The screening assay may also be used to determine stimulatory compounds or compounds that have no effects in the assay.
For `COc1ccc(Nc2nc(NC3CCCCCC3)nc(-c3cc(O)ccc3O)n2)cc1Cl`, the inhibition at 10 µM turned out to be 100%.

Take `COc1ccc(Nc2nc(NC3CCCCCC3)nc(OCc3cccc(C)n3)n2)cc1Cl`: the inhibition at 10 µM stood at 48%.

For `COc1ccc(Nc2nc(NC3CCCCCC3)nc(Oc3ccc(C(C)=O)cc3Cl)n2)cc1Cl` [drawing 626], the inhibition at 10 µM came out at 82%.

On to `COc1ccc(Nc2nc(NC3CCCCCC3)nc(Oc3ccc(/C=N\O)cc3)n2)cc1Cl` [drawing 625], for which the inhibition at 10 µM was found to be 100%.

As for `COc1ccc(Nc2nc(NC3CCCCCC3)nc(Oc3ccc(C(C)=O)cc3)n2)cc1Cl` [drawing 624], the inhibition at 10 µM is 25%.

For `COc1ccc(Nc2nc(NC3CCCCCC3)nc(-c3c(O)ccc4ccccc34)n2)cc1Cl` [drawing 634], the inhibition at 10 µM is 100%.

As to `COc1ccc(Nc2nc(NC3CCCCCC3)nc(Sc3ccccc3)n2)cc1Cl` [drawing 628], the inhibition at 10 µM worked out at 10%.

As to `COc1ccc(Nc2nc(NC3CCCCCC3)nc(Sc3ccc(F)cc3)n2)cc1Cl` [drawing 630], the inhibition at 10 µM is 15%.

Turning to `COc1cc(OC)c(-c2nc(Nc3ccc(OC)c(Cl)c3)nc(NC3CCCCCC3)n2)c(OC)c1` [drawing 632], the inhibition at 10 µM turned out to be 10%.

Take `COc1ccc(Nc2nc(NC3CCCCCC3)nc(Oc3ccccc3F)n2)cc1Cl` [drawing 618]: the inhibition at 10 µM was 10%.

Regarding `CCc1occc(=O)c1Oc1nc(Nc2ccc(OC)c(Cl)c2)nc(NC2CCCCCC2)n1` [drawing 616], the inhibition at 10 µM stood at 48%.

Test system in the next data set: not given
Assay: not given
Settings: not given
With `COc1ccc(Nc2nc(NC3CCCCCC3)nc(OCC3CCCO3)n2)cc1Cl` (stereo not drawn) [Example 30, N-(3-Chloro-4-methoxy-phenyl)-N′-cycloheptyl-6-(tetrahydro-furan-2-ylmethoxy)-[1,3,5]triazine-2,4-diamine], the melting point was determined as 61 °C.

As to `COc1ccc(Nc2nc(NCCN)nc(NC3CCCCCC3)n2)cc1Cl` [Example 40, N-(2-Amino-ethyl)-N′-(3-chloro-4-methoxy-phenyl)-N″-cycloheptyl-[1,3,5]triazine-2,4,6-triamine], the melting point is 77 °C.

Regarding `Cc1ccc(Nc2nc(NC3CCCCCC3)nc(N(C)C3CCN(C)CC3)n2)cc1F`, the melting point amounted to 93 °C.

With `COc1ccc(Nc2nc(NC3CCCCCC3)nc(Oc3ccccc3I)n2)cc1Cl` [Example 10, N^2-(3-chloro-4-methoxyphenyl)-N-4-cycloheptyl-6-(2-iodophenoxy)-1,3,5-triazine-4,2-diamine], the melting point is 206 to 208 °C.

`CCN1CCCC1CNc1nc(Nc2ccc(OCc3ccccc3)c(Cl)c2)nc(NC2CCCCCC2)n1` (stereo not drawn) showed a melting point of 64 °C.

Regarding `COc1ccc(Nc2nc(NCCNC(=O)OC(C)(C)C)nc(NC3CCCCCC3)n2)cc1Cl` [Example 39, {2-[4-(3-Chloro-4-methoxy-phenylamino)-6-cycloheptylamino-[1,3,5]triazin-2-ylamino]-ethyl}-carbamic acid tert-butyl ester], the melting point was 94 °C.

`COc1ccc(Nc2nc(NC3CCCCCC3)nc(Oc3ccc(C=O)cc3)n2)cc1Cl` [Example 15, 4-[4-(3-chloro-4-methoxyanilino)-6-cycloheptylamino-1,3,5-triazine-2-yl-oxy]-benzaldehyde]: the melting point lay within 218 to 220 °C.

In turn, `CN1CCC(N(C)c2nc(Nc3cccc(F)c3)nc(NC3CCCCCC3)n2)CC1` came in with a melting point of 86 °C.

For the compound `COc1ccc(Nc2nc(NCC3CCCO3)nc(NC3CCCCCC3)n2)cc1Cl` (stereo not drawn) [Example 37, N-(3-Chloro-4-methoxy-phenyl)-N′-cycloheptyl-N″-(tetrahydro-furan-2-ylmethyl)-[1,3,5]triazine-2,4,6-triamine], the melting point came out at 77 °C.

`COc1ccc(Nc2nc(NC3CCCCCC3)nc(Oc3ccc(C#CC(C)(C)O)cc3)n2)cc1Cl` gave a melting point of 132 to 134 °C.

The compound `CCN1CCCC1CNc1nc(Nc2ccc(C)c(F)c2)nc(NC2CCCCCC2)n1` (stereo not drawn) [Example 32, N-Cycloheptyl-N′-(1-ethyl-pyrrolidin-2-ylmethyl)-N″-(3-fluoro-4-methyl-phenyl)-[1,3,5]triazine-2,4,6-triamine] showed a melting point of 78 °C.

Consider `COc1ccc(Nc2nc(NC3CCCCCC3)nc(Oc3ccc(C(C)=O)cc3Cl)n2)cc1Cl` [Example 19, 1-{3-chloro-4-[4-(3-chloro-4-methoxyphenylamino)-6-cycloheptylamino-[1,3,5]triazine-2-yloxy]phenyl}ethanone], for which the melting point was in the range of 186 to 196 °C.

`COc1ccc(Oc2nc(Oc3ccc(OC)c(F)c3)nc(Oc3ccc(OC)c(F)c3)n2)cc1F` [2,4,6-Tris-(3-fluoro-4-methoxy-phenoxy)-[1,3,5]triazine] returned a melting point above 210 °C.

In turn, `COc1ccc(Nc2nc(NNC(=O)CCCCC3SCC4NC(=O)NC43)nc(NC3CCCCCC3)n2)cc1Cl` (stereo not drawn) returned a melting point of 154 °C.

`COc1ccc(Nc2nc(NC3CCCCCC3)nc(Oc3ccccc3C#CC(C)(C)O)n2)cc1Cl` [Example 12, 4-{2-[4-(3-chloro-4-methoxyanilino)-6-cycloheptylamino-1,3,5-triazine-2-yl-oxy]-phenyl}-2-methyl-3-butyn-2-ol] showed a melting point of 150 to 158 °C.

As for `CCN1CCCC1CNc1nc(NC2CCCCCC2)nc(NC2CCC(O)CC2)n1` (stereo not drawn) [Example 31, 4-{4-Cycloheptylamino-6-[(1-ethyl-pyrrolidin-2-ylmethyl)-amino]-[1,3,5]triazin-2-ylamino}-cyclohexanol], the melting point worked out at 92 °C.

The subject of a further data set is IL6. Briefly: inhibition of TNF-induced IL6 production. Particulars: at 10 μM. The data set is classed as cell-based.
In turn, `COc1ccc(Oc2nc(Oc3ccc(OC)c(F)c3)nc(Oc3ccc(OC)c(F)c3)n2)cc1F` [drawing 608, 2,4,6-Tris-(3-fluoro-4-meth-oxy-phenoxy)-[1,3,5]triazine] had an inhibition at 10 µM of 5%.

Still in this data set, the particulars now being: given as '50% at x μM'; read-out: Inhibition of TNF-induced IL6 production: concentration giving 50% inhibition.
As for `CCN1CCCC1CNc1nc(Nc2ccc(OCc3ccccc3)c(Cl)c2)nc(NC2CCCCCC2)n1` (stereo not drawn) [drawing 607, N-(4-Benzyloxy-3-chloro-phenyl)-N′-cyclo-heptyl-N″-(1-ethyl-pyrrolidin-2-yl-methyl)-[1,3,5]triazine-2,4,6-triamine], the IC50 stood at 1.1 µM.

As for `COc1ccc(Nc2nc(NC3CCCCCC3)nc(NC3CCN(C(=O)CCCCC4SCC5NC(=O)NC54)CC3)n2)cc1Cl` (stereo not drawn) [drawing 610], the IC50 was 19 µM.

As to `CCN1CCCC1CNc1nc(Nc2ccc(C)c(F)c2)nc(NC2CCCCCC2)n1` (stereo not drawn) [drawing 604, N-Cycloheptyl-N′-(1-ethyl-pyrrolidin-2-yl-methyl)-N″-(3-fluoro-4-meth-yl-phenyl)-[1,3,5]tri-azine-2,4,6-triamine], the IC50 turned out to be 3.3 µM.

As to `CN1CCC(N(C)c2nc(Nc3cccc(F)c3)nc(NC3CCCCCC3)n2)CC1` [drawing 612, N-Cyclo-heptyl-N′-(3-fluoro-phenyl)-N″-meth-yl-N″-(1-methyl-piperidin-4-yl)-[1,3,5]tri-azine-2,4,6-triamine], the IC50 stood at 3.2 µM.

For the next data set, the system named is smooth muscle cells (SMC). Briefly: anti-proliferation assay (perlecan). In kind it is cell-based. The following applies: using the same activity scale used in Table 3. The essentials:
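Compounds are added to smooth muscle cells in growth or serum-free medium. The change in proliferation is measured, e.g. by labelled-nucleotide incorporation into DNA, against untreated cells; IC50 values are given as activity bins.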
Consider `COc1ccc(Oc2nc(Oc3ccc(OC)c(F)c3)nc(Oc3ccc(OC)c(F)c3)n2)cc1F` [2,4,6-Tris-(3-fluoro-4-methoxy-phenoxy)-[1,3,5]triazine], for which the “activity in anti-proliferation assay (Perlecan), in words” value (shortened to “activity in anti-proliferation assay”) was “high activity”.

Regarding `CCN1CCCC(Oc2nc(Nc3ccc(OC)c(Cl)c3)nc(NC3CCCCCC3)n2)C1` (stereo not drawn) [N-(3-Chloro-4-methoxy-phenyl)-N′-cycloheptyl-6-(1-ethyl-piperidin-3-yloxy)-[1,3,5]triazine-2,4-diamine], the “activity in anti-proliferation assay” value was “high activity”.

On to `CN1CCC(N(C)c2nc(Nc3ccc4ccccc4c3)nc(NC3CCCCCC3)n2)CC1` [N^2-cycloheptyl-N^4-methyl-N^4-(1-methyl-piperidin-4-yl)-N^6-naphthalen-2-yl-1,3,5-triazine-2,4,6-triamine], for which the “activity in anti-proliferation assay” value is listed as “high activity”.

As for `COc1ccc(Nc2nc(NC3CCCCCC3)nc(NC3CCN(C(=O)CCCCC4SCC5NC(=O)NC54)CC3)n2)cc1Cl` (stereo not drawn) [4-(5-{4-[4-(3-Chloro-4-methoxy-phenylamino)-6-cycloheptylamino-[1,3,5]triazin-2-ylamino]-piperidin-1-yl}-5-oxo-pentyl)-tetrahydro-thieno[3,4-d]imidazol-2-one], the “activity in anti-proliferation assay” value is given as “high activity”.
